The test system of assay [1] is K7M2 metastatic OS tumor cells. Description: In vivo experimental lung metastasis model, K7M2 cells. Set-up: species or system mice. Here is the method:
FIG. 6 illustrates NSC305787 and NSC668394 inhibit in vivo OS metastatic growth in lungs. (A) K7M2 metastatic OS tumor cells (1×10^6) were injected via tail vein. Vehicle (1% DMSO), NSC305787 (240 μg/kg) and NSC668394 (226 μg/kg) were injected 5 days a week intraperitoneally. Kaplan-Meier survival curves show percent survival for NSC305787 and NSC668394 treatment over time. Median survival of vehicle, NSC305787 and NSC668394 treated K7M2 cells were 28.5, 50, and 49 days after tumor cell injection. […] (B) Fluorescence pictures of whole lungs are given. […] (C) GFP expressing ezrin independent MNNG, human OS cells were injected to mice and treated with vehicle (1% DMSO), NSC305787 (240 μg/kg) and NSC668394 (226 μg/kg). Survival of each group is not different probably because MNNG is an ezrin independent cell line. Median survival of vehicle, NSC305787 and NSC668394 treated MNNG cells were 50.5, 49, and 48.5 days after tumor cell injection. (D) Fluorescent images of the lung tissues of this group are given.
GFP expressing K7M2 or MNNG tumor cells (1×10^6) were delivered by tail vein to nude mice. One day after injection, vehicle, NSC305787 (240 μg/kg/inj) and […] (226 μg/kg/inj) were injected 5 days a week intraperitoneally.

Another assay has as its target T1, ezrin in K7M2 OS cells (Mus musculus, UniProt P26040).
T1 construct: endogenous in cells; host or cells: K7M2 osteosarcoma cells
Description: Endogenous ezrin T567 phosphorylation and actin binding in K7M2 cells (immunoprecipitation/immunoblot). To be noted: 10 μM. It is filed as cell-based. Here is the method:
(§1) K7M2 cells that were treated with embodied compounds and resolved protein lysates were immunoblotted for co-precipitated phosphorylated ezrin (TOP), or actin (BOTTOM). 4.0×10^6 K7M2 cells were plated in 15 cm dishes. After 24 h, the plates are at least 70% confluent. Media was removed and 10 μM of compound in SF DMEM was added. After the ezrin protein was incubated for 5 h with the indicated compound, the plates were lysed with PLB containing Calyculin A. 2 μL of Ezrin Ab and 10 μM of the compound (prepared in PLB) were added to the lysate and allowed to incubate overnight (14 h), followed by tumbling with Agarose IgG beads. The mixture was run on 10% acrylamide gel and transferred overnight.
as §1, with “removed and either 7 μM or 10 μM” for “removed and 10 μM”
For analysis of actin binding to FL and mutant ezrin, K12 cell lysate was incubated with recombinant ezrin protein, then subjected to immunoprecipitation with ezrin antibody (Sigma, St. Louis, Mo.) and immunoblotted with actin antibody (Santa Cruz, Santa Cruz, Calif.). For analysis of inhibition of small molecules on ezrin phosphorylation and actin binding, K7M2 cell lysates were treated with compounds at 10 μM concentration for 6 hours, followed by immunoprecipitation with the ezrin antibody and immunoblotted with phospho-ezrin (Cell Signaling, Danvers, Mass.), actin and ezrin antibodies.
(Immunoblotting shows a protein as a band on a membrane.)

Assay [2] concerns the target T2, recombinant WT ezrin protein (Mus musculus, UniProt P26040).
T2 construct: full-length recombinant ezrin protein was expressed in bacteria; made in house; host or cells: E. coli M15pREP4 (pQE16 vector)
Put plainly: SPR direct binding to immobilized recombinant WT ezrin (Biacore). Particulars: 5 independent experiments. Here is the method:
FIG. 7 provides results illustrating the functional activity of select compounds of the present invention on ezrin protein. The chemical structure of the embodied compounds is detailed and the corresponding binding and viability values are listed. The binding potential of select compounds to ezrin was analyzed by using SPR. Recombinant WT ezrin was immobilized onto a Biacore CM5 sensorchip and compounds were injected one-at-a-time at 6 different concentrations. SPR sensograms and KD values were determined using Biacore software. […] The viability and growth inhibition activity of select compounds were determined by treatment of high ezrin expressed K7M2 and low ezrin expressed K12 osteosarcoma cells with a dose range of the select compound for 24 hours. […]
Compounds for initial screening were acquired from 4 libraries (Challenge Set, Diversity Set, Mechanistic Set and Natural Product Set) of the Developmental Therapeutics Program, National Cancer Institute. Their direct ezrin binding potential was analyzed by using Biacore T100 v2.0.3 instrument (GE Healthcare, Piscataway N.J.). […] Existing interactions are measured based on total mass change on the chip surface. Recombinant WT ezrin protein was used as the ligand and immobilized on to a Biacore CM5 sensorchip and compounds were injected one at a time as the binding interactions were recorded. […]
(In general: Surface plasmon resonance follows binding to a sensor surface in real time, without labels.)

T1 sequence (P26040 whole entry): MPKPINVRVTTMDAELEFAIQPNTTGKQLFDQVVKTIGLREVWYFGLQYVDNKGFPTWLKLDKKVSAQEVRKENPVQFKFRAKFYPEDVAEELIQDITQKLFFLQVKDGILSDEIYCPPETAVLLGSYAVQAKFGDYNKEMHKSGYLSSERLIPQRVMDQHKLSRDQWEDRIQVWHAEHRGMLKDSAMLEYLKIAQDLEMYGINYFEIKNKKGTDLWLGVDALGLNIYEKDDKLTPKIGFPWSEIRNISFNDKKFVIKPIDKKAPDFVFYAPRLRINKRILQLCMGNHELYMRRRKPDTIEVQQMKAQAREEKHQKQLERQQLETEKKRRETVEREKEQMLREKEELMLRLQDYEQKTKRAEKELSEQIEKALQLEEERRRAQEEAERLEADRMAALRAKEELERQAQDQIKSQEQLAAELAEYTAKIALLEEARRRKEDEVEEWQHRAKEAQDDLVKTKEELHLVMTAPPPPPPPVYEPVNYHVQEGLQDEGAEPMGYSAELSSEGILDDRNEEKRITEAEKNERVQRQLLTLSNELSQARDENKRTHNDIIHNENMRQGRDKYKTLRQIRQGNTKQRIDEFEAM
T2 sequence (P26040 whole entry): as above

As for `OC(c1cc(C23CC4CC(CC(C4)C2)C3)nc2c(Cl)cc(Cl)cc12)C1CCCCN1` (stereo not drawn) [NSC305787], in assay [1] (K7M2 cells), the “number of GFP expressing metastatic foci in lung tissues” value was “significant decrease”. For the same molecule, the “median survival after tumor cell injection” value in assay [1] (K7M2 cells by tail vein, i.p. 5 days a week, vehicle 28.5 days) was found to be 50 days. The “cellular ezrin protein levels” value at ezrin in K7M2 OS cells was “without altering cellular ezrin protein levels”. At ezrin in K7M2 OS cells (6 hours), the “T567 phosphorylation of endogenous ezrin” value is “inhibited” and the “actin binding of ezrin” value is “inhibited”. The equilibrium dissociation constant (Kd) in assay [2] stood at 5.85 µM.

The Kd is the concentration at which binding is half-saturated.

(Values after patent publication US9522908B2, “Ezrin inhibitors and methods of making and using” (Georgetown University, priority 2010, dated 2016).)
